Assay results: patent US7998681B2, “Diagnosis and therapy of antibody-mediated inflammatory auto-immune disorders” (Los Angeles Biomedical Research Institute at Harbor-UCLA …, priority 2000, dated 2011)

Experiments:
IL-16 and RANTES = assay: Expression of IL-16 and RANTES (FIG. 4); assay type: cell-based
Source text: Referring to FIG. 5, these findings on the role of IL-16 and RANTES in the fibroblast/lymphocyte inflammation cascade provide options for therapies for TAO, RA and other antibody-mediated inflammatory auto-immune disorders. The method of the therapeutic aspect of the invention involves inhibiting the activity of the two chemoattractant molecules that are substantial contributors to the inflammation cascade, IL-16 and RANTES. IL-16 inhibitors include, but are not limited to, rapamycin, wortmannin, caspase-3 inhibitor, and anti-IL-16 antibody. RANTES inhibitors include, but are not limited to, SB203580, and anti-RANTES antibody. […] These compounds either block translation of the chemoattractant molecules, prevent release of chemoattractant molecules from the cell after they are translated, or neutralize the chemoattractant molecules' ability to cause lymphocytic chemotaxis after they are released.

TAO fibroblasts = assay: PGE2 synthesis in TAO fibroblasts; assay type: cell-based, human; details: FIG. 7A
Procedure: FIGS. 7A and 7B show the up-regulation of PGE2 synthesis and blockage with SC58125 (a PGHS-2 inhibitor) and dexamethasone (7A) and PGHS-2 expression (7B) in TAO fibroblasts.
Referring to FIGS. 7A and 7B, CD40 ligation in orbital fibroblasts results in the induction of PGHS-2 and leads to the over-production of PGE2. […] CD40 ligation in these cultures results in the intermediate activation of IL-1α gene expression. This induction occurs after 6 h of treatment and is mediated at the pre-translational level. IL-1β is undetectable in orbital fibroblasts and is not induced by CD154. Interrupting the expression, receptor binding or activity of IL-1α attenuates the induction of PGHS-2 provoked by CD40 ligation. It is notable that CD40 is over-expressed by thyroid epithelium in Graves' disease and provokes constitutive PGHS-2 expression. Moreover, functional CD40 is expressed by human thyroid fibroblasts.

orbital fibroblasts [1] = assay: Differentiation of orbital fibroblasts into adipocytes; assay type: cell-based, human; details: parent strain, transient exposure; flow analysis
Source text: FIGS. 13A-13D show induction of differentiation of Thy-1^− orbital fibroblasts into adipocytes by the […] ligand rosiglitazone. A control phase contrast of parental strain (B) flow cytometric analysis of parental strain showing absence of adipocytes (C) phase contrast post-differentiation showing adipocyte clusters (D) flow analysis showing 44% adipocyte differentiated.
An under-appreciated feature of the tissue remodeling associated with TAO is the expansion of the fat deposit. In fact, a number of surgical therapeutic strategies are aimed directly at reducing the mass of fat in TAO. These have been variably successful in reducing the mechanical embarrassment imposed by excessive fat volumes in TAO. […] While only a small fraction of orbital fibroblasts undergo differentiation into mature adipocytes, the fraction is invariant with regard to whether the fibroblasts were from a patient with TAO or from normal orbital tissues. While this discovery was of substantial interest to us, we realized that the differentiation of such a small fraction of cells might preclude determining the phenotypic changes accompanying them. However, referring to FIGS. 12A-12D, transient exposure to the PPARγ ligand (rosiglitazone) 45 to 65% of the cells in a parent strain matured to adipocytes showing that orbital fibroblasts express abundant PPARγ. […]

RANTES = RANTES ELISA of medium from treated fibroblasts, GD donors; assay type: cell-based, human; details: TAO orbital fibroblasts; IGF-1 10 nM, TSH high concentrations
Source text: (§1) In addition to its therapeutic aspects, the present invention also relates to a diagnostic method for detecting the presence of antibody-activated fibroblasts in the patient. Applicants believe that several auto immune diseases or disorders are associated with antibody-activated fibroblasts. […] Altered levels of these chemoattractants can be detected in various biological samples in mammals, preferably humans. Levels of IL-16 and/or RANTES may be monitored in a patient, using standard techniques, as an indication of the deleterious aspects of the disease condition. Biological samples, including but not limited to serum, vitreous humor, aqueous humor, synovial fluid, and tissue, will be drawn from the patient using standard techniques. Particularly preferred are serum samples. The measurement of the IL-16 and RANTES levels may be monitored using any method possible to detect the levels of these proteins in biological samples. A preferred method of analysis is by ELISA as described in Sciaky, D. et al., J. Immunol. 164(7):3806-14, 2000. An ELISA specific for IL-16 can be used to assess the levels released by fibroblasts as described previously in Lim, K. G. et al., J. Immunol. 156(7): 2566-70, 1996. An ELISA specific for RANTES can be used according to the manufacturer's specification (BioSource Intl., Camarillo, Calif.).
(§2) The levels of IL-16 and RANTES were then assessed with specific ELISAs. The ELISA assay for IL-16 is performed essentially as discussed in Sciaky D., Brazer, W., Center, D. M., Cruikshank, W. W. and Smith, T. J.: Cultured human fibroblasts express constitutive IL-16 mRNA: Cytokine induction of active IL-16 protein synthesis through a caspase-3-dependent mechanism. J. Immunol. 164(7):3806-14, 2000). An ELISA (BioSource) for RANTES was performed according to the manufacturer's instructions.

IL-16 = IL-16 ELISA of medium from treated fibroblasts, GD donors; assay type: cell-based, human; details: TAO orbital fibroblasts; IGF-1 10 nM, TSH high concentrations
Source text: as §1, §2

orbital fibroblasts [2] = assay: IL-6 and IL-8 synthesis in orbital fibroblasts on CD40 ligation; assay type: cell-based, human; details: orbital fibroblasts treated with rCD154
Source text: These include IL-6 and IL-8, two important molecules critical to the activation and trafficking of bone marrow derived cells to sites of inflammation and which have been implicated in Graves' disease. […] Nuclear translocation of NF-κB is provoked by CD40 ligation and inhibiting the activation of this transcriptional factor by stabilizing the NF-κB/IκB complex can block the induction of both IL-6 and IL-8.

COc1cccc(-c2cc(=O)c3ccccc3o2)c1N [PD098059]
effect on IL-16 and RANTES expression (IL-16 and RANTES): inhibition of expression

C[S+]([O-])c1ccc(-c2nc(-c3ccncc3)c(-c3ccc(F)cc3)[nH]2)cc1 (stereo not shown) [SB203580]
effect on IL-16 and RANTES expression (IL-16 and RANTES): inhibition of expression

CS(=O)(=O)c1ccc(-n2nc(C(F)(F)F)cc2-c2ccc(F)cc2)cc1 [SC58125]
effect on up-regulation of PGE2 synthesis (TAO fibroblasts): blockage

CN(CCOc1ccc(CC2SC(=O)NC2=O)cc1)c1ccccn1 (stereo not shown) [rosiglitazone]
cells matured (differentiated) to adipocytes (orbital fibroblasts [1]): 44%

IGF-1: authentic IGF-1, ligand of the IGF-1 receptor
induction of RANTES expression by the substance itself (RANTES): mimicked
induction of IL-16 expression by the substance itself (IL-16): mimicked

B1: rCD154: recombinant CD40 ligand, member of the TNF-α superfamily (protein, UniProt P29965 113-261, looked up)
CD40 ligand, soluble form: MQKGDQNPQIAAHVISEASSKTTSVLQWAEKGYYTMSNNLVTLENGKQLTVKRQGLYYIYAQVTFCSNREASSQAPFIASLCLKSPGRFERILLRAANTHSSAKPCGQQSIHLGGVFELQPGASVFVNVTDPSQVSHGTGFTSFGLLKL
synthesis of both IL-6 and IL-8 (orbital fibroblasts [2]): dramatically increased
